Experimental data taken from ChEMBL document CHEMBL1201862, “PubChem BioAssay data set” (2004).
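A five-concentration, 48-hour dose response in 96-well plates underlies each endpoint, interpolated linearly between surrounding concentrations. At the GI50, growth is halved.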 Active and inactive are the calls of the source. Cut-off read from the data, not from the text of the source: active = GI50 up to about 1.1 µM and inactive = higher.

Columns and labels:
Test in all cases: DTP human tumour cell line panel, 48 h
CAKI-1 = system: CAKI-1
MCF7 = system: MCF7
A498 = system: A498
SK-MEL-28 = system: SK-MEL-28
SK-MEL-2 = system: SK-MEL-2
U-251 = system: U-251
PC-3 = system: PC-3
OVCAR-3 = system: OVCAR-3
SNB-75 = system: SNB-75
HCC 2998 = system: HCC 2998
HCT-15 = system: HCT-15
MDA-MB-435 = system: MDA-MB-435
MDA-N = system: MDA-N
OVCAR-5 = system: OVCAR-5
ACHN = system: ACHN
SW-620 = system: SW-620
SN12C = system: SN12C
MOLT-4 = system: MOLT-4
T47D = system: T47D
UO-31 = system: UO-31

Structure (SMILES) | GI50 (CAKI-1) | GI50 (MCF7) | GI50 (A498) | GI50 (SK-MEL-28) | GI50 (SK-MEL-2) | GI50 (U-251) | GI50 (PC-3) | GI50 (OVCAR-3) | GI50 (SNB-75) | GI50 (HCC 2998) | GI50 (HCT-15) [µM] | GI50 (MDA-MB-435) | GI50 (MDA-N) | GI50 (OVCAR-5) | GI50 (ACHN) | GI50 (SW-620) | GI50 (SN12C) | GI50 (MOLT-4) | GI50 (T47D) | GI50 (UO-31)
NC(=O)c1cc2ccc(O)cc2o/c1=N/NC(=O)c1ccccc1 | 36.6 µM (inactive) | > 100 µM (inactive) | 40.5 µM (inactive) | 76.4 µM (inactive) | 28.2 µM (inactive) | > 100 µM (inactive) | 83.2 µM (inactive) | 80.5 µM (inactive) | 25.9 µM (inactive) | 33.4 µM (inactive) | 79.3 | 74.3 µM (inactive) | 72.8 µM (inactive) | > 100 µM (inactive) | 58.1 µM (inactive) | 64.3 µM (inactive) | 63.7 µM (inactive) | 35.1 µM (inactive) | 15.6 µM (inactive) | 67 µM (inactive)
Cc1cc(=O)oc2cc(OC(=O)Nc3ccccc3)ccc12 | > 100 µM (inactive) | 88.1 µM (inactive) | 64.4 µM (inactive) | > 100 µM (inactive) | > 100 µM (inactive) | 86.3 µM (inactive) | 48.8 µM (inactive) | 61 µM (inactive) | > 100 µM (inactive) | 84.3 µM (inactive) | 50.9 | > 100 µM (inactive) | > 100 µM (inactive) | > 100 µM (inactive) | 74 µM (inactive) | 62.8 µM (inactive) | 74.6 µM (inactive) | 40.8 µM (inactive) | 41.9 µM (inactive) | 40.4 µM (inactive)
Cn1c(-c2ccc[se]2)ccc1-c1ccc(C=O)[se]1 | 0.195 µM (active) | 0.124 µM (active) | 1.17 µM (inactive) | 42.1 µM (inactive) | 65.3 µM (inactive) | 0.0811 µM (active) | 56.9 µM (inactive) | 0.366 µM (active) | 23 µM (inactive) | 2.47 µM (inactive) | 8.15 | 11.4 µM (inactive) | 6.34 µM (inactive) | 0.0418 µM (active) | 46.6 µM (inactive) | 1.3 µM (inactive) | 14.9 µM (inactive) | 7.43 µM (inactive) | 0.325 µM (active) | > 76.4 µM (inactive)
O=C(O)Cn1ccnc1[N+](=O)[O-] | > 100 µM (inactive) | > 100 µM (inactive) | > 100 µM (inactive) | > 100 µM (inactive) | > 100 µM (inactive) | > 100 µM (inactive) | > 100 µM (inactive) | > 100 µM (inactive) | > 100 µM (inactive) | > 100 µM (inactive) | > 100 | > 100 µM (inactive) | > 100 µM (inactive) | > 100 µM (inactive) | > 100 µM (inactive) | > 100 µM (inactive) | > 100 µM (inactive) | > 100 µM (inactive) | > 100 µM (inactive) | > 100 µM (inactive)
CCCCON1C[C@@H](O)C(O)[C@@H](O)C1 (stereo not given in full) | > 100 µM (inactive) | > 100 µM (inactive) | > 100 µM (inactive) | > 100 µM (inactive) | > 100 µM (inactive) | > 100 µM (inactive) | > 100 µM (inactive) | > 100 µM (inactive) | > 100 µM (inactive) | > 100 µM (inactive) | > 100 | > 100 µM (inactive) | > 100 µM (inactive) | > 100 µM (inactive) | > 100 µM (inactive) | > 100 µM (inactive) | > 100 µM (inactive) | > 100 µM (inactive) | > 100 µM (inactive) | > 100 µM (inactive)
O=[N+]([O-])C(=C(\Cl)NCCO)/C(Cl)=C(/Cl)Br | 0.558 µM (active) | 0.716 µM (active) | 4.66 µM (inactive) | 2.1 µM (inactive) | 1.03 µM (active) | 2.04 µM (inactive) | 2.62 µM (inactive) | 1.32 µM (inactive) | 3.37 µM (inactive) | 3.33 µM (inactive) | 1.32 | 1.3 µM (inactive) | 1.83 µM (inactive) | 4 µM (inactive) | 2.75 µM (inactive) | 1.17 µM (inactive) | 1.98 µM (inactive) | 0.481 µM (active) | 1.74 µM (inactive) | 2.79 µM (inactive)
